row,SMILES,melting point [°C]
1,CC(C)c1cccc(C(C)C)c1NC(=O)CNC(c1ccccc1)c1ccccc1Cl (stereo not given),119 to 121
2,CC1(c2ccccc2)SC(=S)N(Nc2ccccc2)C1=NOC(=O)Nc1ccc(Cl)c(Cl)c1 (stereo not given),95 to 96
3,NC(C(=O)N1CCC(F)C1)C1CCCCC1 (mixture of isomers),> 250
4,Cc1nc2cccc(N)c2s1,100 to 101
5,Nc1ccc2c(c1-c1ccccc1)CCC2,73 to 75
6,COc1nc(C)c(C)nc1NC(=O)N1CCN(c2c(C)c(C)cc(C)c2C)CC1,202 to 204
7,COc1ccc(C=CC(=O)c2c(OC)cc(OC)cc2OC(=O)c2cccnc2)cc1,55 to 60
8,CS(=O)(=O)OC1CCc2c(sc(N)c2C(=O)c2ccc(Cl)cc2)C1 (stereo not given),73 to 75
9,CCCCCCCCNC(=O)CSc1nc(Cl)cc(Nc2cccc(C)c2C)n1,144 to 146
10,Clc1ccc(OCc2ccccc2)c(Br)c1,49 to 50.5
11,CC1Sc2c(C(=O)O)c(=O)c3cc(F)c(N4CCC(O)C4)cc3n21 (stereo not given),206 to 208
12,O=[N+]([O-])c1cc(Cc2ccc[nH]2)cc(O)c1O,115 to 118
13,CCOc1cc([C@H]2COCC[C@H]2NC(=O)c2ccc(C(=O)OC)cc2)ccc1OC,166 to 168
14,CC(=O)NC1Cc2cccc3cccc(c23)C1=O (stereo not given),185 to 186
15,CC(=O)OCc1ccc(Cl)cc1C(O)c1ccccc1 (stereo not given),86 to 88
16,COc1ccccc1NC1=NN(S(=O)(=O)c2ccc(C)cc2)CC1,176 to 179
17,NC(=O)CNC(=O)c1cccc(-c2ccc3c(c2)N(c2ccc(Cl)cc2Cl)CC3)c1,184 to 186
18,O=C(O)c1nn(-c2ccc(Cl)cc2)c2c1[C@H]1CC[C@@H]2C1,110 to 112
19,CCCCCCCCCCCCCCCCCCN(OCCCC)C(CCCCCCCCCCCCCCCCC)P(=O)(OCCCC)OCCCC (stereo not given),38 to 40
20,COC(=O)c1cc(CBr)cnc1C1=NC(C)(C(C)C)C(=O)N1C(=O)c1ccccc1 (stereo not given),88 to 119
21,CCOC(=O)c1c(C)n(C)c(-c2ccccc2)cc1=O,154
22,COc1ccc(C=CC=C(C#N)C#N)cc1,160
23,NC(=O)c1c(C(F)(F)F)ccc(Cl)c1Cl,118 to 120
24,O=C(O)[C@H](Cc1ccccc1)NS(=O)(=O)N1CCOCC1,157 to 158
25,CC(=O)OCC1OC(n2c(=O)sc3c(=O)[nH]c(N)nc32)C(OC(C)=O)C1OC(C)=O (stereo not given),198 to 199
26,CN1C2=C(C(=O)OC2)C(c2ccncc2)c2cc3c(cc21)OCO3 (stereo not given),255
27,O=Cc1ccc(-c2ccnc(-c3ccc(OC(F)(F)F)cc3)n2)cc1,70 to 73

# Now from value to compound:
row,melting point [°C],SMILES
1,47,COC(=O)c1snnc1C1CC1
2,111 to 115,COc1ccc(C(=O)N(c2ccccc2)c2ccc(OCCCN(C)C)cc2)cc1
3,42 to 44,CCOC(=O)COc1c(C)c(C(F)(F)F)nc(C(F)(F)F)c1C(=O)OCC
4,125 to 126,COc1cc(C(=O)c2ccc(OC)c(OC)c2OC)cc(OC)c1OC
5,185 to 186,CCCc1nc2c(N)ncc(Br)c2n1CCOCCNC(=O)NC1CCCCC1
6,252,CCOC(=O)c1ccc(-c2[nH]nc3c2C(=O)c2c(NC(=O)N(NC)NC)cccc2-3)s1
7,148 to 150,CCOC(=O)c1cn(C2CC2)c2nc(N3CC(C)C(N)C3)c(F)cc2c1=O (stereo not given)
8,237 to 240,COc1ccccc1-n1c(=O)[nH]c2c(C(N)=O)nc(-c3ccccc3C(F)(F)F)nc21
9,226,Nc1c(Cl)cc(C(=O)O)c2c1CCCO2
10,214 to 215,Cc1cc2c(cc1C)C(c1ccccc1)(C(F)(F)F)c1cc(C)c(C)cc1O2
11,145 to 155,CC(=O)Nc1ccc(C(C)=NNc2ccc(C3=NNC(=O)CC3C)cc2)cc1 (stereo not given)
12,136 to 138,COc1cc(=O)n(-c2cccc(C(F)(F)F)c2)nc1C(C)=O
13,116,CCN(CC)C(=O)c1cc2ccccc2c(-c2cccc(Cl)c2)n1

# From a melting point compilation (Tetko et al.; mined from patent text by program, amines drawn as free bases though some values may be those of a salt)
